Data published in US12599672B2, “KRAS proteolysis targeting chimeras” (PAQ Therapeutics Inc., priority 2023, dated 2026).

Columns and labels:
Assay type in all cases: cell-based
KRAS G12D = molecular target: T1, KRAS G12D (Homo sapiens, UniProt P01116, G12D); test: KRAS G12D HiBit assay; settings: AsPc-1-KRAS (G12D)-HiBit-KI cell, compound treatment for 24 hours, absolute DC50; class symbols
T1 construct: AsPc-1-KRAS (G12D)-HiBit-KI cell (Pharmaron); host or cells: AsPc-1-KRAS (G12D)-HiBit-KI cells (HiBiT knock-in at the endogenous KRAS locus)
Outline: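 HiBiT luminescence, detected by adding lytic buffer, substrate and LgBiT protein, served as the KRAS G12D read-out. Compounds, serially diluted 3-fold over 10 points from 0.3 mM DMSO stock, were on cells for 24 h; percent inhibition normalized to cells given 0.1% DMSO only.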

KRAS G12V = molecular target: T2, KRAS G12V (Homo sapiens, UniProt P01116, G12V); test: KRAS G12V HiBit assay; settings: SW620-KRAS (G12V)-HiBit-KI cells, compound treatment for 24 hours, class symbols
T2 construct: SW620-KRAS (G12V)-HiBit-KI cell (Pharmaron); host or cells: SW620-KRAS (G12V)-HiBit-KI cells (HiBiT knock-in at the endogenous KRAS locus)
Outline: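 Luminescence from lytic Nano-Glo HiBiT detection with LgBiT read KRAS G12V levels after 24 h compound exposure. Dilutions were 10-point, 3-fold, from a 0.3 mM DMSO stock. Degradation activity was normalised to cells given 0.1% DMSO alone.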

KRAS = molecular target: T3, KRAS (Homo sapiens, UniProt P01116); test: KRASamp MSD assay; settings: KE39 (KRAS amplified) cells, treated with test compounds for 24 hr, MSD readout of KRAS degradation
T3 construct: endogenous in cells; host or cells: KE39 (KRAS amplified) cells
Procedure: KE39 (KRAS amplified) cells were cultured in RPMI 1640 medium (Gibco, 11875093), seeded into 96 well plate and treated with test compounds for 24 hr. The cells were washed with PBS and lysed in plate for 1 hr at 4° C. with agitation in RIPA buffer (Cat No. BP-115D) supplemented with protease and phosphatase inhibitor cocktail. The lysates were loaded into MSD plate coated with KRAS capture antibody (LSBio, C175665, 1:1000) for 1 h at RT with agitation. The plate was then washed three times with TBST and incubated with KRAS detection antibody (Abcam, Ab275876. 1:2000) for 1 h at RT. After washing three times with TBST, the plate was incubated with secondary detection antibody GAR (1:500) for 1 hr at RT followed with 3×TBST washing. 2×MSD reading buffer was added into individual wells and the plate was finally read by MSD reader (MSD, SQ 120 MM). The recombinant WT KRAS protein was used for standard curve generation and protein quantification. The degradation activity was calculated using the following formula: […]
DC50 was calculated by fitting the curve using GraphPad Prism v8.0.2 (analysis 263): […]

T2 sequence (P01116 1-188 isoform P01116-2 G12V): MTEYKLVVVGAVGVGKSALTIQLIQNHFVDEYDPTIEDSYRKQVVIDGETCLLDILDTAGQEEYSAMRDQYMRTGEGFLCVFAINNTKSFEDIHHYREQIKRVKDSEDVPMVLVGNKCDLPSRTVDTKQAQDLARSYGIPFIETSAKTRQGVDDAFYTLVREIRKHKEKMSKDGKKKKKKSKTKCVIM
T1 sequence (P01116 1-188 isoform P01116-2 G12D): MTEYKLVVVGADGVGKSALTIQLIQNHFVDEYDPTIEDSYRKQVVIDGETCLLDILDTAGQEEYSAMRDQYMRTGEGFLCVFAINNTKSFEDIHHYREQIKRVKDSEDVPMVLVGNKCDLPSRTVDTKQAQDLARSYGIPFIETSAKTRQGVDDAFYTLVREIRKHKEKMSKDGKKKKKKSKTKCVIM
T3 sequence (P01116 1-188 isoform P01116-2): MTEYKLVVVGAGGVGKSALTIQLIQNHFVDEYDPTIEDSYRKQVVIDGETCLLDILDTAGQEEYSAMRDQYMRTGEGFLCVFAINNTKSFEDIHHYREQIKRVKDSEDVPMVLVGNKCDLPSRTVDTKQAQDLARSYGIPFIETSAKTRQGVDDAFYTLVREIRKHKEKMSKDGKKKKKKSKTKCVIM

CCc1c(F)ccc2cc(O)cc(-c3ncc4c(N5CCCOCC5)nc(OC[C@@]56CCCN5[C@H](COC(=O)N5CCC(CN7CCC(c8ccc9c(c8)n(C)c(=O)n9C8CCC(=O)NC8=O)CC7)CC5)CC6)nc4c3F)c12 (stereo partly drawn) [Compound 422, ((3S,7aS)-7a-(((7-(8-ethyl-7-fluoro-3-hydroxynaphthalen-1-yl)-8-fluoro-4-(1,4-oxazepan-4-yl)pyrido[4,3-d]pyrimidin-2-yl)oxy)methyl)hexahydro-1H-pyrrolizin-3-yl)methyl 4-((4-(1-(2,6-dioxopiperidin-3-yl)-3-methyl-2-oxo-2,3-dihydro-1H-benzo[d]imidazol-5-yl)piperidin-1-yl)methyl)piperidine-1-carboxylate]
DC50 (KRAS G12D): < 100 nM
DC50 (KRAS G12V): < 10 nM
DC50 (KRAS): < 1 nM

C#Cc1c(F)ccc2cc(O)cc(-c3ccc4c(N5CCC[C@@](C)(O)C5)nc(OCC5(CN6CCC(CN7CCC(c8ccc9c(c8)n(C)c(=O)n9C8CCC(=O)NC8=O)CC7)CC6)CC5)nc4c3F)c12 (stereo partly drawn) [Compound 13]
DC50 (KRAS G12D): < 100 nM
DC50 (KRAS G12V): < 10 nM
DC50 (KRAS): < 1 nM

CCc1c(F)ccc2cc(O)cc(-c3ccc4c(N5CCC[C@@](C)(O)C5)nc(OC[C@@]56CCCN5[C@H](COC(=O)N5CCC(CN7CCC(c8cc9c(cc8F)n(C8CCC(=O)NC8=O)c(=O)n9C)CC7)CC5)CC6)nc4c3F)c12 (stereo partly drawn) [Compound 424, ((3S,7aS)-7a-(((7-(8-ethyl-7-fluoro-3-hydroxynaphthalen-1-yl)-8-fluoro-4-((R)-3-hydroxy-3-methylpiperidin-1-yl)quinazolin-2-yl)oxy)methyl)hexahydro-1H-pyrrolizin-3-yl)methyl 4-((4-(1-(2,6-dioxopiperidin-3-yl)-6-fluoro-3-methyl-2-oxo-2,3-dihydro-1H-benzo[d]imidazol-5-yl)piperidin-1-yl)methyl)piperidine-1-carboxylate]
DC50 (KRAS G12D): < 100 nM
DC50 (KRAS G12V): < 10 nM
DC50 (KRAS): < 1 nM

CCc1c(F)ccc2cc(O)cc(-c3ncc4c(N5CCC[C@@](C)(O)C5)nc(OCC5(CN6CCN(CC7CCN(c8ccc9c(c8)n(C)c(=O)n9C8CCC(=O)NC8=O)CC7)CC6)CC5)nc4c3F)c12 (stereo partly drawn) [Compound 34]
DC50 (KRAS G12D): < 100 nM
DC50 (KRAS G12V): < 10 nM
DC50 (KRAS): < 1 nM

CCc1c(F)ccc2cc(O)cc(-c3ncc4c(N5CCC[C@@](C)(O)C5)nc(OC[C@@]56CCCN5[C@H](COC(=O)N5CCC(OC7CCN(c8ccc9c(c8)n(C)c(=O)n9C8CCC(=O)NC8=O)CC7)CC5)CC6)nc4c3F)c12 (stereo partly drawn) [Compound 160, ((3S,7aS)-7a-(((7-(8-Ethyl-7-fluoro-3-hydroxynaphthalen-1-yl)-8-fluoro-4-((R)-3-hydroxyl-3-methylpiperidin-1-yl)pyrido[4,3-d]pyrimidin-2-yl)oxy)methyl)hexahydro-1H-pyrrolizin-3-yl)methyl 4-((1-(1-(2,6-dioxopiperidin-3-yl)-3-methyl-2-oxo-2,3-dihydro-1H-benzo[d]imidazol-5-yl)piperidin-4-yl)oxy)piperidine-1-carboxylate]
DC50 (KRAS G12D): < 100 nM
DC50 (KRAS G12V): < 10 nM
DC50 (KRAS): < 1 nM

CCc1c(F)ccc2cc(O)cc(-c3ncc4c(N5CCC[C@@](C)(O)C5)nc(OC[C@@]56CCCN5[C@H](COC(=O)N5CCC7(CC5)CC(N5CC(c8ccc9c(c8)n(C)c(=O)n9C8CCC(=O)NC8=O)C5)C7)CC6)nc4c3F)c12 (stereo partly drawn) [Compound 464, ((3S,7aS)-7a-(((7-(8-ethyl-7-fluoro-3-hydroxynaphthalen-1-yl)-8-fluoro-4-((R)-3-hydroxy-3-methylpiperidin-1-yl)pyrido[4,3-d]pyrimidin-2-yl)oxy)methyl)hexahydro-1H-pyrrolizin-3-yl)methyl 2-(3-(1-(2,6-dioxopiperidin-3-yl)-3-methyl-2-oxo-2,3-dihydro-1H-benzo[d]imidazol-5-yl)azetidin-1-yl)-7-azaspiro[3.5]nonane-7-carboxylate]
DC50 (KRAS G12D): < 100 nM
DC50 (KRAS G12V): < 10 nM
DC50 (KRAS): 1 to 10 nM
